From ChEMBL document CHEMBL2203038, “Isolation and synthesis of two antiproliferative calamenene-type sesquiterpenoids from Sterculia tavia from the Madagascar rain forest” (Bioorg Med Chem, 2012)
pIC50: −log10 of the molar value.

System: A2780
Assay: Antiproliferative activity against human A2780 cells after 2 days by alamar blue assay
Format: functional, cell-based
Settings: A2780, 48 h

Row | pIC50 | Structure (SMILES)
1 | < 4.30 | COc1cc2c(cc1C)C(C(C)C)CC(O)[C@]2(C)O (stereo partly specified)
2 | 4.99 | CC1=Cc2c(c(C)cc(O)c2C(C)C)C(=O)C1=O [MANSONONE G]
3 | 4.66 | COc1cc2c(cc1C)C(C(C)C)=CC(O)[C@]2(C)O (stereo partly specified)
4 | 4.47 | COc1cc2c(cc1C)C(C(C)C)CC(=O)[C@]2(C)O (stereo partly specified)
5 | 5.23 | COc1cc2c(cc1C)[C@@](O)(C(C)C)C(=O)C(=O)[C@@]2(C)O (stereo in doubt)
6 | 5.40 | COc1cc2c(cc1C)C(C(C)C)=CC(=O)[C@]2(C)O [LACINILENE C METHYL ETHER]
7 | 5.26 | COc1cc2c(cc1C)[C@](O)(C(C)C)C(=O)C(=O)[C@]2(C)O (stereo in doubt)
8 | 5.20 | COc1cc2c(cc1C)[C@@](O)(C(C)C)C(=O)C(=O)[C@]2(C)O (stereo in doubt)
9 | < 4.30 | COc1cc2c(cc1C)C(C(C)C)CC=C2C (stereo unspecified)
10 | 5.17 | COc1cc2c(cc1C)[C@](O)(C(C)C)C(=O)C(=O)[C@@]2(C)O (stereo in doubt)
11 | 4.45 | COc1cc2c(cc1C)C(O)(C(C)C)C(O)C(O)[C@]2(C)O (mixture of isomers)
